In patent publication US20240368203A1, “DEGRADATION OF (EGFR) BY CONJUGATION OF EGFR INHIBITORS WITH E3 LIGASE LIGAND AND METHODS OF USE” (BeiGene, Ltd., priority 2022, published 2024):

Experiments:
EGFR-Del19/T790M/C797S = test: EGFR degradation HTRF assay in H1975-clone #28 cells; assay type: cell-based; settings: H1975-clone #28 (Del19/T790M/C797S) cells, 16 h treatment; for DC50: IC50 (DC50), read-out: DC50(nM) H1975 # 28 DTC; for Dmax (%) H1975 # 28 DTC: maximum percentage of inhibition (degradation)
In short: (§1)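 H1975 clones with endogenous EGFR knocked out, homozygously expressing lentiviral L858R/T790M/C797S (#25) or Del19/T790M/C797S (#28), treated 16 h at 37° C with 8 doses from 10 uM, 5-fold, in 0.2% DMSO. EGFR in lysates measured by HTRF overnight; DC50 from four-parameter fit of % degradation.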

EGFR-L858R/T790M/C797S = target: T1, EGFR-L858R/T790M/C797S (Homo sapiens, UniProt P00533, C797S/L858R/T790M); test: EGFR degradation HTRF assay in H1975-clone #25 cells; assay type: cell-based; settings: 16 h treatment; for DC50: H1975-clone #25 (L858R/T790M/C797S) cells, IC50 (DC50), read-out: DC50(nM) H1975 # 25-LTC; for Dmax: NCI-H1975, H1975-clone #25 (L858R/T790M/C797S) cells, maximum percentage of inhibition (degradation), read-out: Dmax (%) H1975 # 25-LTC
T1 construct: expressed in transfected cells; host or cells: H1975-clone #25 (lentiviral over-expression, endogenous EGFR knocked out)
T1 sequence (P00533 25-1210 T790M/C797S/L858R): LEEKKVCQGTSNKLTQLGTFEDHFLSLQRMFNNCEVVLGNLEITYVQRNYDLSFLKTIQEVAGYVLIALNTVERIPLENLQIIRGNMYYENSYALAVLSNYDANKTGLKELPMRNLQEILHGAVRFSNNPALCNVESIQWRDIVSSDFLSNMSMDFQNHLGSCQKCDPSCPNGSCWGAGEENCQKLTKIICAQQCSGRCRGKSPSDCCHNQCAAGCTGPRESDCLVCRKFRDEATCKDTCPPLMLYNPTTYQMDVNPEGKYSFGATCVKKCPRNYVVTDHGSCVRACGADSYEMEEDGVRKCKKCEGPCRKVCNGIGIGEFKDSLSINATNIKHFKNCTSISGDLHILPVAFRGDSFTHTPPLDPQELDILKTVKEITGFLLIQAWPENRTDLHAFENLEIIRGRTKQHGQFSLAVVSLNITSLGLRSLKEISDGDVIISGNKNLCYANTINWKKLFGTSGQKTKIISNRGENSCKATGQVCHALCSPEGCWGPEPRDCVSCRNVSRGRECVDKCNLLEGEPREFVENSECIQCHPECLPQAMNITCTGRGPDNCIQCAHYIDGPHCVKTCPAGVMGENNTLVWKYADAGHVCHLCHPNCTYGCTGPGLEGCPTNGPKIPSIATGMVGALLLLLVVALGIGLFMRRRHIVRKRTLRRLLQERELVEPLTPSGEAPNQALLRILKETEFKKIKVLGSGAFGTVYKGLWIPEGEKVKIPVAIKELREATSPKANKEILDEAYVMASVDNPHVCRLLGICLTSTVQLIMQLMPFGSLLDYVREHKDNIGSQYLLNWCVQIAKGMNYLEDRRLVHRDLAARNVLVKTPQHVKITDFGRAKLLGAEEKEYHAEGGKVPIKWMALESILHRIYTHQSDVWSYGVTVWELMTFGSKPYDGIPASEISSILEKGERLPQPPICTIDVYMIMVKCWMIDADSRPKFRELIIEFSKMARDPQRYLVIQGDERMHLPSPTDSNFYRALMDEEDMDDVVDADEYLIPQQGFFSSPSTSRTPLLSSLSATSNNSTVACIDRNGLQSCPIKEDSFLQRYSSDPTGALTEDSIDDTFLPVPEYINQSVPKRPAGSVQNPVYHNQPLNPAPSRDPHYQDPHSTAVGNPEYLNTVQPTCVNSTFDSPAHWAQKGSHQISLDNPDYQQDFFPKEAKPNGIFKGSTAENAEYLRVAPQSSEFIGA
In short: as §1

Row | DC50 (EGFR-Del19/T790M/C797S) | DC50 (EGFR-L858R/T790M/C797S) | Dmax (EGFR-L858R/T790M/C797S) | SMILES | Dmax (%) H1975 # 28 DTC (EGFR-Del19/T790M/C797S)
1 | 8.2 nM | 5.6 nM | 90% | CCc1cc(Nc2ncc(Br)c(Nc3ccc4nc(C)c(F)cc4c3P(C)(C)=O)n2)c(OC)cc1N1CCC(N2CC(CN3CCC(c4cc(F)c([C@H]5CCC(=O)NC5=O)c(F)c4)CC3)C2)CC1 [Example 56, (R)-3-(4-(1-((1-(1-(4-((5-bromo-4-((5-(dimethylphosphoryl)-3-fluoro-2-methylquinolin-6-yl)amino)pyrimidin-2-yl)amino)-2-ethyl-5-methoxyphenyl)piperidin-4-yl)azetidin-3-yl)methyl)piperidin-4-yl)-2,6-difluorophenyl)piperidine-2,6-dione] | 86%
2 | 4.5 nM | 2.7 nM | 90% | CCOc1cc(N2CCC(N3CCC4(CC3)CN(c3cc(F)c([C@H]5CCC(=O)NC5=O)c(F)c3)C4)CC2)c(CC)cc1Nc1ncc(Cl)c(Nc2ccc3nc(C)c(F)cc3c2P(C)(C)=O)n1 [Example 57, (R)-3-(4-(7-(1-(4-((5-chloro-4-((5-(dimethylphosphoryl)-3-fluoro-2-methylquinolin-6-yl)amino)pyrimidin-2-yl)amino)-5-ethoxy-2-ethylphenyl)piperidin-4-yl)-2,7-diazaspiro[3.5]nonan-2-yl)-2,6-difluorophenyl)piperidine-2,6-dione] | 88%
3 | 1.6 nM | 3.1 nM | 91% | CCc1ccc2c(P(C)(C)=O)c(Nc3nc(Nc4cc(CC)c(N5CCC(N6CC7(CCN(c8cc(F)c([C@H]9CCC(=O)NC9=O)c(F)c8)CC7)C6)CC5)cc4OC)ncc3Br)ccc2n1 [Example 58, (R)-3-(4-(2-(1-(4-((5-bromo-4-((5-(dimethylphosphoryl)-2-ethylquinolin-6-yl)amino)pyrimidin-2-yl)amino)-2-ethyl-5-methoxyphenyl)piperidin-4-yl)-2,7-diazaspiro[3.5]nonan-7-yl)-2,6-difluorophenyl)piperidine-2,6-dione] | 91%
4 | 3.8 nM | 2.7 nM | 92% | CCOc1cc(N2CCC(N3CC4(CCN(c5cc(F)c([C@H]6CCC(=O)NC6=O)c(F)c5)CC4)C3)CC2)c(CC)cc1Nc1ncc(Cl)c(Nc2ccc3nc(C)c(F)cc3c2P(C)(C)=O)n1 [Example 59, (R)-3-(4-(2-(1-(4-((5-chloro-4-((5-(dimethylphosphoryl)-3-fluoro-2-methylquinolin-6-yl)amino)pyrimidin-2-yl)amino)-5-ethoxy-2-ethylphenyl)piperidin-4-yl)-2,7-diazaspiro[3.5]nonan-7-yl)-2,6-difluorophenyl)piperidine-2,6-dione] | 87%
5 | 0.5 nM | 1.1 nM | 95% | CCc1cc(Nc2ncc(Br)c(Nc3ccc4nc(C)c(F)cc4c3P(C)(C)=O)n2)c(OC)cc1N1CCC(N2CC3(CN(c4cc(F)c([C@H]5CCC(=O)NC5=O)c(F)c4)C3)C2)CC1 [Example 60, (R)-3-(4-(6-(1-(4-((5-bromo-4-((5-(dimethylphosphoryl)-3-fluoro-2-methylquinolin-6-yl)amino)pyrimidin-2-yl)amino)-2-ethyl-5-methoxyphenyl)piperidin-4-yl)-26-diazaspiro[3.3]heptan-2-yl)-2,6-difluorophenyl)piperidine-2,6-dione] | 95%
6 | 0.9 nM | 1.2 nM | 94% | CCc1cc(Nc2ncc(Cl)c(Nc3ccc4nc(C)c(F)cc4c3P(C)(C)=O)n2)c(OC)cc1N1CC2(C1)CN(C1CCN(c3cc(F)c([C@H]4CCC(=O)NC4=O)c(F)c3)CC1)C2 [Example 61, (R)-3-(4-(4-(6-(4-((5-chloro-4-((5-(dimethylphosphoryl)-3-fluoro-2-methylquinolin-6-yl)amino)pyrimidin-2-yl)amino)-2-ethyl-5-methoxyphenyl)-2,6-diazaspiro[3.3]heptan-2-yl)piperidin-1-yl)-2,6-difluorophenyl)piperidine-2,6-dione] | 94%
